Source: patent publication US6914045B2, “Glycopeptide antibiotics” (Wyeth Holdings Corporation, priority 2001, dated 2005)
In brackets after ≈: the same amount, converted by molar mass.

Tests used:
Test in all cases: in vitro antibacterial evaluation, MIC by broth dilution
Assay type in all cases: cell-based
[1] = test system: Streptococcus sp.; conditions: broth dilution, 18 hours at 35° C.
Protocol: (§1) Methods for in vitro Antibacterial Evaluation (Table 1)
(§2) The minimum inhibitory concentration (MIC), the lowest concentration of the antibiotic which inhibits growth of the test organism, is determined by the broth dilution method using Muller-Hinton II […] (Baltimore Biological Laboratories) following the recommendations of the National Committee for Clinical Laboratory Standards [Methods for dilution antimicrobial susceptibility tests for bacteria that grow aerobically, approved standard M7-A2, National Committee for Clinical Laboratory Standards, Villanova, Pa.].
(§3) An inoculum level of 5×10^5 CFU/mL, and a range of antibiotic concentrations (64-0.06 μg/mL) is used. […] The test organisms include a spectrum of Gram-positive bacteria comprised of Staphylococcus sp., Streptococcus sp. and Enterococcus sp. These organisms include recent clinical isolates that are resistant to methicillin, penicillin and/or vancomycin.

[2] = test system: Enterococcus sp.; conditions: broth dilution, 18 hours at 35° C.
Protocol: as §1, §2, §3

[3] = test system: Staphylococcus sp.; conditions: broth dilution, 18 hours at 35° C.
Protocol: as §1, §2, §3

[4] = test system: Escherichia coli; conditions: 18 hours at 35° C.
In short: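 Broth dilution MIC per NCCLS M7-A2 in Mueller-Hinton II medium, inoculum 5×10^5 CFU/mL, antibiotic range 64-0.06 μg/mL. MIC taken as lowest concentration inhibiting growth.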

SMILES: CC(c1ccccc1)C1NC(=O)CNC(=O)C(CO)NC(=O)C(C(O)C2CN(c3ncccn3)C(=N)N2C2OC(CO)C(O)C(O)C2O)NC(=O)C(C(O)C2CNC(=Nc3ncccn3)N2)NC(=O)C(Cc2ccc(OC3OC(CO)C(OC4OC(CO)C(O)C(O)C4O)C(O)C3O)cc2)NC1=O (stereo not drawn) [Example 92, Cyclo[glycyl-β-methylphenylalanyl-O-(4-O-hexolpyranosylhexopyranosyl)tyrosyl-3-[2-(pyrimidin-2-ylimino)imidazolidin-4-yl]seryl-3-[3-hexopyranosyl-2-imino-1-(pyrimidin-2-yl)imidazolidin-4-yl]serylseryl]]
- MIC Streptococcus agalactiae (GC 4564) [1]: >128 µg/mL
- MIC Streptococcus pneumoniae (ATCC 6301) [1]: 128 µg/mL (≈ 88.2 µM)
- MIC Streptococcus pneumoniae (GC 1894) [1]: 128 µg/mL (≈ 88.2 µM)
- MIC Streptococcus pneumoniae (GC 4565) [1]: 128 µg/mL (≈ 88.2 µM)
- MIC Streptococcus pyogenes (GC 4563) [1]: >128 µg/mL
- MIC Streptococcus pneumoniae (ATCC 6301) ([1]; strain ATCC 6301): 128 µg/mL (≈ 88.2 µM)
- MIC Streptococcus pneumoniae (GC 1894) ([1]; strain GC 1894): 128 µg/mL (≈ 88.2 µM)
- MIC Streptococcus pyogenes (GC 4563) ([1]; strain GC 4563): >128 µg/mL
- MIC Streptococcus agalactiae (GC 4564) ([1]; strain GC 4564): >128 µg/mL
- MIC Streptococcus pneumoniae (GC 4565) ([1]; strain GC 4565): 128 µg/mL (≈ 88.2 µM)
- MIC Enterococcus avium (GC 4558) ([2]; Enterococcus avium (GC 4558)): 128 µg/mL (≈ 88.2 µM)
- MIC Enterococcus faecalis (ATCC 29212) ([2]; Enterococcus faecalis (ATCC 29212)): >128 µg/mL
- MIC Enterococcus faecalis (GC 4552) ([2]; Enterococcus faecalis (GC 4552)): >128 µg/mL
- MIC Enterococcus faecalis (GC 4553) ([2]; Enterococcus faecalis (GC 4553)): 128 µg/mL (≈ 88.2 µM)
- MIC Enterococcus faecalis (GC 4554) ([2]; Enterococcus faecalis (GC 4554)): >128 µg/mL
- MIC Enterococcus faecalis (GC 6189) ([2]; Enterococcus faecalis (GC 6189)): >128 µg/mL
- MIC Enterococcus faecium (GC 2243) ([2]; Enterococcus faecium (GC 2243)): >128 µg/mL
- MIC Enterococcus faecium (GC 4556) ([2]; Enterococcus faecium (GC 4556)): >128 µg/mL
- MIC Enterococcus faecium (GC 4557) ([2]; Enterococcus faecium (GC 4557)): 128 µg/mL (≈ 88.2 µM)
- MIC Enterococcus avium (GC 4558) [2]: 128 µg/mL (≈ 88.2 µM)
- MIC Enterococcus faecalis (ATCC 29212) [2]: >128 µg/mL
- MIC Enterococcus faecalis (GC 2242) [2]: >128 µg/mL
- MIC Enterococcus faecalis (GC 2691) [2]: >128 µg/mL
- MIC Enterococcus faecalis (GC 3059) [2]: >128 µg/mL
- MIC Enterococcus faecalis (GC 4552) [2]: >128 µg/mL
- MIC Enterococcus faecalis (GC 4553) [2]: 128 µg/mL (≈ 88.2 µM)
- MIC Enterococcus faecalis (GC 4554) [2]: >128 µg/mL
- MIC Enterococcus faecalis (GC 6189) [2]: >128 µg/mL
- MIC Enterococcus faecium (GC 2243) [2]: >128 µg/mL
- MIC Enterococcus faecium (GC 4556) [2]: >128 µg/mL
- MIC Enterococcus faecium (GC 4557) [2]: 128 µg/mL (≈ 88.2 µM)
- MIC Enterococcus faecalis (GC 2242) ([2]; strain GC 2242): >128 µg/mL
- MIC Enterococcus faecalis (GC 2691) ([2]; strain GC 2691): >128 µg/mL
- MIC Enterococcus faecalis (GC 3059) ([2]; strain GC 3059): >128 µg/mL
- MIC Coagulase Negative Staphylococcus (GC 4547) [3]: >128 µg/mL
- MIC Coagulase Negative Staphylococcus (GC 4548) [3]: >128 µg/mL
- MIC Coagulase Negative Staphylococcus (GC 4549) [3]: >128 µg/mL
- MIC Coagulase Negative Staphylococcus (GC 4551) [3]: >128 µg/mL
- MIC Staphylococcus aureus-SMITH (GC 4543) [3]: >128 µg/mL
- MIC Staphylococcus haemolyticus (GC 4546) [3]: >128 µg/mL
- MIC Staphylococcus aureus (ATCC 29213) ([3]; strain ATCC 29213): >128 µg/mL
- MIC Staphylococcus aureus (GC 1131) ([3]; strain GC 1131): >128 µg/mL
- MIC Staphylococcus aureus (GC 3051) ([3]; strain GC 3051): >128 µg/mL
- MIC Staphylococcus aureus (GC 3053) ([3]; strain GC 3053): >128 µg/mL
- MIC Staphylococcus aureus (GC 4541) ([3]; strain GC 4541): >128 µg/mL
- MIC Staphylococcus aureus (GC 4542) ([3]; strain GC 4542): >128 µg/mL
- MIC Staphylococcus aureus-SMITH (GC 4543) ([3]; strain GC 4543): >128 µg/mL
- MIC Staphylococcus aureus (GC 4544) ([3]; strain GC 4544): >128 µg/mL
- MIC Staphylococcus aureus (GC 4545) ([3]; strain GC 4545): >128 µg/mL
- MIC Staphylococcus haemolyticus (GC 4546) ([3]; strain GC 4546): >128 µg/mL
- MIC Coagulase Negative Staphylococcus (GC 4547) ([3]; strain GC 4547): >128 µg/mL
- MIC Coagulase Negative Staphylococcus (GC 4548) ([3]; strain GC 4548): >128 µg/mL
- MIC Coagulase Negative Staphylococcus (GC 4549) ([3]; strain GC 4549): >128 µg/mL
- MIC Coagulase Negative Staphylococcus (GC 4551) ([3]; strain GC 4551): >128 µg/mL
- MIC Escherichia coli (ATCC 25922) [4]: >128 µg/mL
- MIC Escherichia coli (GC 4559) [4]: >128 µg/mL
- MIC Escherichia coli (GC 4560) [4]: >128 µg/mL
